Measurements reported in a melting point compilation (Tetko et al.; mined from patent text by program, amines drawn as free bases though some values may be those of a salt).

Row | SMILES | melting point
1 | CC(C)Oc1cc(O)c(C(=O)C=Cc2ccccc2OC(C)C)c(OC(C)C)c1 | 119 to 120 °C
2 | O=C(c1ccccc1)c1ccc(O)c2ncccc12 | 115 to 116 °C
3 | Nc1ncnc2c1ncn2C1OC(CS)C(O)C1O (stereo unspecified) | 108 to 109 °C
4 | COC(=O)c1cccc2c1-c1ccc3c(c1C(c1ccccc1)O2)C(C)=CC(C)(C)N3 (stereo unspecified) | 150 to 152 °C
5 | C#CCN1C(=O)COc2ccc(-n3c(Cl)nc(C(F)(F)F)cc3=O)cc21 | 143 to 145 °C
6 | C/C(=C/c1ccc(C(=O)O)cc1)c1cc2c(cc1C)CCC(C)(C)CC2 | 223 to 225 °C
7 | COCCOc1ncc(Cl)c(N)c1Cl | 92 to 93.5 °C
8 | NC(=O)c1cccc(CCN2CC=C(c3c[nH]c(-c4ccc(F)cc4)c3-c3ccncc3)CC2)c1 | 185 to 188 °C
9 | CC(C)(C(=O)NO)C(O)Cc1ccccc1 (stereo unspecified) | 95 to 96 °C
10 | O=C(CCCCCl)c1cccc2c1OCCO2 | 32 to 38 °C
11 | Cc1nc2ccccc2c2c1OC(C)CN2 (stereo unspecified) | 169 to 170 °C
12 | C=CC(C)=CC(=CC)NCc1ccc2nc(NC3CCN(C)CC3)n(Cc3nc(C)ccc3O)c2c1 | 141 °C
13 | CC(C)(C)C1=NN(c2ccc(C(=O)O)cc2)C(c2ccc(Cl)c(Cl)c2)C1 (stereo unspecified) | 217 °C
14 | CC(=O)c1cc(C#N)c(=O)[nH]c1C=CN(C)C | 267 to 270 °C
15 | CC(C)(C)OC(=O)Cn1c(C(=O)c2ccccc2)ccc1-c1ccccc1 | 85 to 87 °C
16 | O=Cc1c(F)cc(F)cc1-c1ccc(F)cc1 | 69 to 71 °C
17 | CCN(c1nc(C)cc(C(=O)c2nccs2)n1)c1ccc(C(C)C)cc1Br | 97 to 98.5 °C
18 | Cc1ccc(-c2cnc(-c3cc(C(F)(F)F)cs3)s2)s1 | 131 to 133 °C
19 | O=C(O)C(=O)CC(=O)c1cccn1Cc1ccc(F)c(F)c1 | 145 to 148 °C
20 | CC(C)(C)OC(=O)N[C@H](Cc1ccc(Cl)c(Cl)c1)C(=O)N1CCC[C@H]1C(=O)NCC1CCc2nc(N)ncc2C1 (stereo partly specified) | 110 to 113 °C
21 | Cc1cc([N+](=O)[O-])c(OCc2ccccc2)c(Cl)c1C | 74 to 75 °C
22 | CC(O)(C#CI)c1ccc(OC(F)(F)F)cc1 (stereo unspecified) | 75 to 76 °C
23 | COc1cc2c(c(Cl)c1Cl)C(=O)C(CCCl)C2 (stereo unspecified) | 103 to 105 °C
24 | COc1cc2c(cc1C(F)(F)F)N(C(=O)Nc1ccc3c(ccn3-c3ccncc3)c1)CC2 | 206 to 211 °C
25 | CC1(CN(c2ccc(Cl)cc2)S(C)(=O)=O)SCCS1 | 114 to 117 °C
26 | COc1ccccc1N1CCN(CNC(=O)c2ccc(Cl)cc2)CC1 | 145 to 147 °C

Row | SMILES | melting point
27 | Cc1ccc(S(=O)(=O)Oc2ccc(S(=O)(=O)c3c(-c4ccccc4)cn4ccccc34)cc2)cc1 | 168 °C
28 | CCOC(=O)C1CCCN1C(=O)c1cc2c(cc1[N+](=O)[O-])OCO2 (stereo unspecified) | 94 °C
29 | Cc1cccc2c1nc1n2CC(C(C)(C)C)Oc2c(Cl)cccc2-1 (stereo unspecified) | 191 to 192 °C
30 | N#Cc1cc(F)c(NC(=O)CC(=O)C(F)(F)F)cc1F | 176 to 181 °C
31 | COc1cc2cc3c(Nc4ccc(Sc5nccn5C)c(Cl)c4)c(C#N)cnc3cc2cc1OCCN1CCOCC1 | > 300 °C
32 | CCOCc1cnc2c(N)cccc2c1Cl | 90 to 93 °C
33 | C=CC(NC(C)=O)C(=O)NCc1ccccc1 (stereo unspecified) | 136 to 138 °C
34 | Cc1nc(N2CCN(CC3CCCCO3)C2=O)sc1C(=O)NCc1cccnc1 (stereo unspecified) | 174 to 175 °C
35 | CN1CCC(ON2C(=O)c3ccccc3C2=O)CC1 | 90 °C
36 | CCCCS(=O)c1ncn(C(=O)N(CCC)CCC)n1 (stereo unspecified) | 39 to 40 °C
37 | Cc1cccc(C(=O)N(NC(=O)NS(=O)(=O)c2ccc(Cl)cc2)C(C)(C)C)c1 | 184 to 188 °C
38 | Nc1ccnc(-c2nnn(Cc3cc(C(F)(F)F)cc(C(F)(F)F)c3)c2-c2ccccc2)c1C(=O)c1ccccc1Cl | 156 °C
39 | COc1cc(NC(=O)C(C#N)=CNc2ccc(OC)c(I)c2)c(Cl)cc1Cl | 289 to 290 °C
40 | CC(C)N1C(=O)c2ccccc2C1CC(C)(C)O (stereo unspecified) | 82 to 84 °C
41 | Clc1ccc(-c2nc(-n3cccn3)oc2CCC2=NCCO2)cc1 | 79 to 80 °C
42 | COCC(C)n1nc(-c2c(-c3ccccc3)nn3ccc(OC)cc23)ccc1=O (stereo unspecified) | 138 to 139 °C
43 | CN1CCc2cc(Br)[nH]c2C(c2ccccc2)C1 (stereo unspecified) | 132 to 133 °C
44 | CSc1cnnc(Cl)c1 | 98 to 100 °C
45 | c1ccc2c(c1)-c1ccccc1C21c2ccccc2-c2ccccc21 | 198 °C
46 | COC(=O)CC(C(=O)OC)c1ccccc1 (stereo unspecified) | 54 to 56 °C
47 | OCCCc1ccc(OCc2ccco2)cc1Oc1ncc(C(F)(F)F)cc1Cl | 68 to 68.6 °C
48 | Cc1ccc([N+](=O)[O-])cc1S(=O)(=O)n1ccnc1C | 159 to 161 °C
49 | Cc1cc2oc(=O)c3c(c2cc1C)CCN(CCN1CCCCC1)C3 | 142 to 145 °C
50 | CC(=O)N1c2ccccc2CC1C(N)=NO (stereo unspecified) | 204 to 205 °C
51 | CN(CC(=O)[C@@H](N)Cc1ccccc1)C(=O)N1CCC[C@H]1C(=O)O | 174 to 175 °C
52 | CCCCc1cn(-c2ccccc2C(C)C)c(=O)n1Cc1ccc(-c2ccccc2-c2nnn[nH]2)cc1 | 167 to 168 °C

Row | SMILES | melting point
53 | CCCCC1(N(C)C)CCC(c2[nH]c3ccccc3c2C)(c2[nH]c3ccccc3c2CCNS(=O)(=O)C2CCCC2)CC1 (stereo unspecified) | 111 to 115 °C
54 | CNC1N=CN(c2c(C)cccc2Cl)C(=O)N1 (stereo unspecified) | 254 to 256 °C
55 | O=Cc1ccc(OCCBr)cc1 | 49.5 to 50 °C
56 | CCc1cc([N+](=O)[O-])cc([N+](=O)[O-])c1Cl | 41 to 44 °C
57 | Oc1ccc2[nH]cc(C3CCN(CCCCc4c[nH]c5ccccc45)CC3)c2c1 | 178 to 180 °C
58 | NC(=O)C(c1ccc(Cl)cc1)c1ccc(-n2ncc(=O)[nH]c2=O)cc1Cl (stereo unspecified) | 161 °C
59 | O=C(O)c1ccc(OCc2ccccc2OCc2ccccc2)cc1 | 177 to 179 °C
60 | Cc1[nH]c2ccc(OS(=O)(=O)c3c(F)cccc3F)cc2c1C1CCN(C)CC1 | 138 °C
61 | Cc1nnc2n1-c1ccc([N+](=O)[O-])cc1C(c1ccccc1F)=NC2(C)C | 195 °C
62 | CCOC(=O)CC(=O)CC(O)C=Cc1c(C)c(OCc2ccccc2)c(C)c2c1OC(C)(C)CC2 (stereo unspecified) | 83 to 83.5 °C
63 | CCCCCCCCCCCCCCCC1Cc2cc(C(=O)O)ccc2N1 (racemic) | 102 to 104 °C
64 | FC(F)(F)c1ccc2sc(CCl)nc2c1 | 52 °C
65 | CC1(C)Oc2ccccc2-n2c(CN3CCOCC3)ccc21 | 150 to 151 °C
66 | OCC1C(Cl)=Cc2ccccc21 (stereo unspecified) | 104 to 105 °C
67 | COC/C(=N/O)c1ccc(Sc2cc(F)cc(C3(OC)CCOCC3)c2)cc1 | 155 °C
68 | Cc1cc(C#N)cc(C)c1Oc1nc(Nc2ccc(C#N)cc2)nc(N)c1Br | 271 °C
69 | COC(=O)c1ccc(-c2nc3cc(Cl)c(Cl)cc3[nH]2)cc1 | 240 to 250 °C
70 | CC(C)C(Cl)C(=O)Nc1c(C(=O)CC(=O)Nc2ccccn2)cccc1C(F)(F)F (stereo unspecified) | 136 to 138 °C
71 | CCc1nc2c(cnn2CC)c(NC2CCOCC2)c1CNC(=O)c1cccc(C(=O)NCc2ccc(C)c(Br)c2)c1 | 175 to 176 °C
72 | CCCCCCCN(CCCCCSc1nc2ccc([N+](=O)[O-])cc2[nH]1)C(=O)Nc1ccc(F)cc1F | 120 to 122 °C
73 | CC1(c2ccccc2)OC(=S)Nc2ccc(-c3cccc(Cl)c3)cc21 (stereo unspecified) | 202 to 203 °C
74 | CN(C(=O)c1ccc2nonc2c1)C1CCCC1 | 110 to 111 °C
75 | CC(=NOCC(=O)O)c1ccc(Cl)c(Cl)c1 | 128 to 129 °C
76 | COc1cc(OC)c(C(=O)CCCCN2CCC3(CC2)NC(=O)NC3=O)cc1NS(=O)(=O)c1ccc(C(F)(F)F)cc1 | 226 °C
77 | CC1(CN2CCC(C(=O)c3ccc(C(F)(F)F)cc3)CC2)Cn2cc([N+](=O)[O-])nc2O1 (stereo unspecified) | 172 to 174 °C
78 | CC(CSC(=O)c1ccccc1)C(=O)N1Cc2ccccc2CC1C(=O)O (stereo unspecified) | 154 to 155 °C

Row | SMILES | melting point
79 | O=C(O)c1cccc(=O)n1OCc1ccccc1 | 176 to 177 °C
80 | CCCn1nc2c(N)nc3c(c2c1CCCc1cc(C)no1)CCCC3 | 144 to 145 °C
81 | COC(=O)CC[C@H](NC(=O)c1ccc(CCn2cnc3nccc-3c2O)cc1)C(=O)OC | 170 to 172 °C
82 | Cc1ccccc1CCC(C)(C)NC(=O)n1nc(N(C)C)n(N)c1=O | 117 °C
83 | O=C(Nc1ccc(N2CCOCC2)cc1)N(C[C@H]1CC[C@H](CN(C(=O)Nc2ccc(N3CCOCC3)cc2)C2CCCCC2)CC1)C1CCCCC1 | 156 to 158 °C
84 | CC(C)(C)OC(=O)NCC(N)c1c[nH]c2cc(Br)ccc12 (stereo unspecified) | 80 °C
85 | NC(=O)c1cnc2sccc2c1Cl | 159 to 160 °C
86 | Nc1cc(I)ccc1Nc1cccc(-c2cncnc2)c1 | 166 to 169 °C
87 | CCn1c(C)c(C(=O)c2ccc([N+](=O)[O-])cc2C(=O)O)c2ccccc21 | 203 to 204 °C
88 | CCOC(C)=C(C#N)C(=O)Nc1cccc(Cl)c1 | 166 to 168 °C
89 | CC12CCC3c4cc(N)c(OCc5ccccc5)cc4CCC3C1CCC2=O (stereo unspecified) | 205 to 207 °C
90 | N#Cc1ccc(-c2cccc(OS(N)(=O)=O)c2)cc1Cn1cncn1 | 137 to 138 °C
91 | Cc1ccc(S(=O)(=O)OCC2CCc3scnc3C2)cc1 (stereo unspecified) | 87 to 88 °C
92 | CCOC(=O)c1cn(CC)c2c(F)c(C(=O)C=CN(C)C)c(F)cc2c1=O | 175 to 177 °C
93 | Cc1nc(C(C)O)c[nH]1 (stereo unspecified) | 107 to 111 °C
94 | Cc1cn(-c2ccc(N)cc2C(F)(F)F)c(C)n1 | 163 to 164 °C
95 | CCc1cc(S(=O)(=O)C(Br)(Br)Br)ccc1C(N)=O | 175 to 177 °C
96 | FC(F)(F)c1cccc(-c2ccnc3ccnn23)c1 | 103 to 104 °C
97 | Cc1c(-c2ccc(F)cc2)c(-c2ccccc2)nn1C(C)C | 135 to 137 °C
98 | CCCOc1cccc(-c2ccnc(Nc3cc(OC)c(OC)c(OC)c3)n2)c1 | 107 °C
99 | COc1ccc2c(c1)C(=O)C(=O)N2c1ccc(F)cc1 | 246 to 247 °C
100 | CCOC(=O)C1=C(C)N=C(OC)N(C(=O)OCC)C1c1cccc([N+](=O)[O-])c1 (stereo unspecified) | 61.5 to 64.5 °C
101 | CCN1C(=O)C(C)(C)C(=O)N(C)c2cc(OCCCn3c(=O)c(Br)cc4ccccc43)ccc21 | 168 to 169 °C
